Assay results published in US11459338B2, “Heterocyclic compounds as PRMT5 inhibitors” (JUBILANT EPISCRIBE LLC, priority 2018, dated 2022).
Read-outs that look alike come from different tables or passages of the source.

What was measured:
PRMT5/MEP50 = molecular target: T1, PRMT5/MEP50 (Homo sapiens, UniProt O14744); experiment: PRMT5/MEP50 enzyme assay on peptide substrates (3H-SAM Flashplate); assay type: biochemical; conditions: PRMT5/MEP50 10 nM, H4 1-15aa peptide 100 nM, 3H-SAM 1 μM
T1 construct: Full-length human PRMT5 (NP_006100)

[1] = tested on: Symmetric di-methyl arginine in Z-138 cells; experiment: Z-138 methylation assay, ELISA for detection of symmetric di-methyl arginine; assay type: cell-based; conditions: Homo sapiens
Method: General reagents. […] Iscove's Modified Dulbecco's Medium (IMDM), Horse serum, penicillin-streptomycin, PBS and TMB-ELISA substrate solution were purchased from ThermoFisher Scientific. Symmetric di-methyl arginine antibody was purchased from Cell Signaling Technologies.Anti-SNRPD3/SmD3 antibody was purchased from Sigma-Aldrich.
ELISA for detection of Symmetric di-methyl arginine. […] A compound source plate was prepared by performing ten-point 3-fold dilution in DMSO, such that the final top concentration of the compound was 10 μM, and DMSO was 0.3%. The total volume of compounds added was 20 μL. The cells were incubated for 96 h at 37° C., 5% CO2. Z-138 cells were directly lysed in media with 3× Lysis Buffer (1×: 10 mM HEPES pH7.9, 5 mM MgCl2, 1M NaCl, 0.25M Sucrose, 1% Triton X-100, 1 mM PMSF, Protease & Phosphatase inhibitors). […] Plates were incubated at room temperature for a minimum of 3 h and then washed with PBS-Tween 20 (0.05%). The plates were blocked with 5% BSA at room temperature for 1 h, washed with PBS-Tween 20 and incubated with primary antibody at 4 C overnight.

Z-138 cells = experiment: Z-138 long term proliferation assay (Cell Titer Glo); assay type: cell-based; conditions: Homo sapiens; for GI50: 192 h, Z-138 cells, cell viability, day 8, read-out: PRMT5 Z138 GI50 Day 8 μM; for IC50: Z-138, 192 h, summary of Table 1, read-out: IC50 value (all the three assays): Z138 GI50 Day 8
Outline: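 Z-138 cells exposed to ten-point 3-fold dilutions (top 10 μM, 0.3% DMSO) for 96 h at 37° C., 5% CO2, then re-dosed for four more days.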

[2] = Z-138 cells, 96 h (day 4), read-out: PRMT5 Z138 SDMA ELISA Day 4 μM
[3] = Z-138, 96 h, summary of Table 1, read-out: IC50 value (all the three assays): Z138 SDMA ELISA Day 4

T1 sequence (O14744 whole entry): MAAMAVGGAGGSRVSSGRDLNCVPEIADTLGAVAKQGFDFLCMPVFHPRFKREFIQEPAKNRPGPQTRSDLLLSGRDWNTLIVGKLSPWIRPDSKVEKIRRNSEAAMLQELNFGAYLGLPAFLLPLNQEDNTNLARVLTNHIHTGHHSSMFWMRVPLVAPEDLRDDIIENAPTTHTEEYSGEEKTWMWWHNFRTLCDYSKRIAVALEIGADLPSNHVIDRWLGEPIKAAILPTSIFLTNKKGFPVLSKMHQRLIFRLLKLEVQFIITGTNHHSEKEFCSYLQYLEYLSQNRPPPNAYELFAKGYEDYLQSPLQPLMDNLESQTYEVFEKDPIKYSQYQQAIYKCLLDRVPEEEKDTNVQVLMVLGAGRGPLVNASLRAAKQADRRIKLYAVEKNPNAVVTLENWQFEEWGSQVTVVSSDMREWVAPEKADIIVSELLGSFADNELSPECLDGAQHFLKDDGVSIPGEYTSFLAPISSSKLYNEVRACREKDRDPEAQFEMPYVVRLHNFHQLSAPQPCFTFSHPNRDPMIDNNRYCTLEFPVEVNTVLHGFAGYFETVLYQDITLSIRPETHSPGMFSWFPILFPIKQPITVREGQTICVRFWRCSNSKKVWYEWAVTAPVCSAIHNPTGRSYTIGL
T1 sequence (Q9BQA1 whole entry partner): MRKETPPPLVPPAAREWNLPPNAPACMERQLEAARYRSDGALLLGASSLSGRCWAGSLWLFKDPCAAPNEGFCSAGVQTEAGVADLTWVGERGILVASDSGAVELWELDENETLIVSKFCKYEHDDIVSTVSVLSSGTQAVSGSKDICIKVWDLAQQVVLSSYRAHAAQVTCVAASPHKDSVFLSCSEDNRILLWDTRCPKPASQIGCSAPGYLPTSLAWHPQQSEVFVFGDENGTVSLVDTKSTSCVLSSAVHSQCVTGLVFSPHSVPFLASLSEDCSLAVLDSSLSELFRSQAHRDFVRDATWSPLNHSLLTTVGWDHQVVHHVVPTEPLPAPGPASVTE

SMILES | IC50 (PRMT5/MEP50) | IC50 [1, 2] | IC50 [1, 3] | GI50 (Z-138 cells) | IC50 (Z-138 cells)
O=C(NCC(O)CN1CCc2ccccc2C1)c1cn2cc(-c3ccccc3)ccc2n1 (centres unmarked) [Example 10, N-(3-(3,4-dihydroisoquinolin-2(1H)-yl)-2-hydroxypropyl)-6-phenylimidazo[1,2-a]pyridine-2-carboxamide] | 10 to 1000 nM | 10 to 1000 nM | 10 to 1000 nM | 10 to 1000 nM | 10 to 1000 nM
Cn1cc(-c2cn3cc(C(=O)NC[C@H](O)CN4CCc5ccccc5C4)nc3cn2)cn1 [Example 45, (S)—N-(3-(3,4-dihydroisoquinolin-2(1H)-yl)-2-hydroxypropyl)-6-(1-methyl-1H-pyrazol-4-yl)imidazo[1,2-a]pyrazine-2-carboxamide] | 10 to 1000 nM | 10 to 1000 nM | 10 to 1000 nM | 10 to 1000 nM | 10 to 1000 nM
CCCC1CCc2nc(C(=O)NCC(O)CN3CCc4ccccc4C3)cn2C1 (centres unmarked) [Example 106, N-(3-(3,4-dihydroisoquinolin-2(1H)-yl)-2-hydroxypropyl)-6-propyl-5,6,7,8-tetrahydroimidazo[1,2-a]pyridine-2-carboxamide] | 10 to 1000 nM | 10 to 1000 nM | – | 1000 to 5000 nM | –
Cc1ccc2nc(C(=O)NCC(O)CN3CCc4ccccc4C3)cn2c1 (centres unmarked) [Example 2, N-(3-(3,4-dihydroisoquinolin-2(1H)-yl)-2-hydroxypropyl)-6-methylimidazo[1,2-a]pyridine-2-carboxamide] | 10 to 1000 nM | 10 to 1000 nM | 10 to 1000 nM | 10 to 1000 nM | 10 to 1000 nM
Cn1ccc(-c2cn3cc(C(=O)NC[C@H](O)CN4CCc5ccccc5C4)nc3cn2)cc1=O [Example 47, (S)—N-(3-(3,4-dihydroisoquinolin-2(1H)-yl)-2-hydroxypropyl)-6-(1-methyl-2-oxo-1,2-dihydropyridin-4-yl)imidazo[1,2-a]pyrazine-2-carboxamide] | 10 to 1000 nM | 10 to 1000 nM | 10 to 1000 nM | 10 to 1000 nM | 10 to 1000 nM
O=C(NC[C@H](O)CN1CCc2ccccc2C1)c1cn2c(n1)COC(c1ccc(F)cc1)C2 (stereo partly drawn) [Example 116, N—((S)-3-(3,4-dihydroisoquinolin-2(1H)-yl)-2-hydroxypropyl)-6-(4-fluorophenyl)-5,6-dihydro-8H-imidazo[2,1-c][1,4]oxazine-2-carboxamide] | 10 to 1000 nM | 10 to 1000 nM | 10 to 1000 nM | 10 to 1000 nM | 10 to 1000 nM
O=C(NCC(O)CN1CCc2ccccc2C1)c1cn2c(n1)CCC(c1ccccc1)C2 (centres unmarked) [Example 110, N-(3-(3,4-dihydroisoquinolin-2(1H)-yl)-2-hydroxypropyl)-6-phenyl-5,6,7,8-tetrahydroimidazo[1,2-a]pyridine-2-carboxamide] | 1000 to 5000 nM | 10 to 1000 nM | – | 1000 to 5000 nM | –
N#Cc1ccc(-c2ccc3nc(C(=O)NC[C@H](O)CN4CCc5ccccc5C4)cn3c2)cc1 [Example 14, (S)-6-(4-cyanophenyl)-N-(3-(3,4-dihydroisoquinolin-2(1H)-yl)-2-hydroxypropyl) imidazo[1,2-a]pyridine-2-carboxamide] | 10 to 1000 nM | 10 to 1000 nM | 10 to 1000 nM | 10 to 1000 nM | 10 to 1000 nM
CC(C)C1CCc2nc(C(=O)NC[C@H](O)CN3CCc4ccccc4C3)cn2C1 (stereo partly drawn) [Example 108, N—((S)-3-(3,4-dihydroisoquinolin-2(1H)-yl)-2-hydroxypropyl)-6-isopropyl-5,6,7,8-tetrahydroimidazo[1,2-a]pyridine-2-carboxamide] | 1000 to 5000 nM | 10 to 1000 nM | – | 10 to 1000 nM | –
O=C(NC[C@H](O)CN1CCc2ccccc2C1)c1cn2cc(N3CCC(F)C3)ncc2n1 (stereo partly drawn) [Example 73, N—((S)-3-(3,4-dihydroisoquinolin-2(1H)-yl)-2-hydroxypropyl)-6-(3-fluoropyrrolidin-1-yl)imidazo[1,2-a]pyrazine-2-carboxamide] | 1000 to 5000 nM | 10 to 1000 nM | – | 1000 to 5000 nM | –
O=C(NCC(O)CN1CCc2ccccc2C1)c1cn2c(n1)CC(c1ccccc1)CC2 (centres unmarked) [Example 109, N-(3-(3,4-dihydroisoquinolin-2(1H)-yl)-2-hydroxypropyl)-7-phenyl-5,6,7,8-tetrahydroimidazo[1,2-a]pyridine-2-carboxamide] | 1000 to 5000 nM | 10 to 1000 nM | – | > 5000 nM | –
Cn1cc(-c2cnc3nc(C(=O)NC[C@H](O)CN4CCc5ccccc5C4)cn3c2)cn1 [Example 43, (S)—N-(3-(3,4-dihydroisoquinolin-2(1H)-yl)-2-hydroxypropyl)-6-(1-methyl-1H-pyrazol-4-yl)imidazo[1,2-a]pyrimidine-2-carboxamide] | > 5000 nM | 10 to 1000 nM | – | > 5000 nM | –

Now from value to compound, other results behind:

IC50 (PRMT5/MEP50) | IC50 [1, 2] | IC50 [1, 3] | SMILES | GI50 (Z-138 cells) | IC50 (Z-138 cells)
10 to 1000 nM | 10 to 1000 nM | – | O=C(NC[C@H](O)CN1CCc2ccccc2C1)c1cn2cc(N3CCC3)ccc2n1 [Example 69, (S)-6-(azetidin-1-yl)-N-(3-(3,4-dihydroisoquinolin-2(1H)-yl)-2-hydroxypropyl)imidazo[1,2-a]pyridine-2-carboxamide] | 1000 to 5000 nM | –
10 to 1000 nM | 10 to 1000 nM | 10 to 1000 nM | O=C(NC[C@H](O)CN1CCc2ccccc2C1)c1cn2cc(-c3cc(F)cc(F)c3)ccc2n1 [Example 16, (S)-6-(3,5-difluorophenyl)-N-(3-(3,4-dihydroisoquinolin-2(1H)-yl)-2-hydroxypropyl)imidazo[1,2-a]pyridine-2-carboxamide] | 10 to 1000 nM | 10 to 1000 nM
10 to 1000 nM | 10 to 1000 nM | 10 to 1000 nM | O=C(NC[C@H](O)CN1CCc2ccccc2C1)c1cn2c(n1)CC[C@@H](C(F)(F)F)C2 [Example 121A, (R)—N—((S)-3-(3,4-dihydroisoquinolin-2(1H)-yl)-2-hydroxypropyl)-6-(trifluoromethyl)-5,6,7,8-tetrahydroimidazo[1,2-a]pyridine-2-carboxamide] | 10 to 1000 nM | 10 to 1000 nM
10 to 1000 nM | 10 to 1000 nM | 10 to 1000 nM | O=C(NC[C@H](O)CN1CCc2ccccc2C1)c1cn2cc(-c3ccc(F)cc3)ccc2n1 [Example 17, (S)—N-(3-(3,4-dihydroisoquinolin-2(1H)-yl)-2-hydroxypropyl)-6-(4fluorophenyl) imidazo[1,2-a]pyridine-2-carboxamide] | 10 to 1000 nM | 10 to 1000 nM
10 to 1000 nM | 10 to 1000 nM | 10 to 1000 nM | Cc1nc(-c2ccc3nc(C(=O)NC[C@H](O)CN4CCc5ccccc5C4)cn3c2)no1 [Example 6, (S)—N-(3-(3,4-dihydroisoquinolin-2(1H)-yl)-2-hydroxypropyl)-6-(5-methyl-1,2,4-oxadiazol-3-yl)imidazo[1,2-a]pyridine-2-carboxamide] | 10 to 1000 nM | 10 to 1000 nM
10 to 1000 nM | 10 to 1000 nM | – | CN(C[C@H](O)CN1CCc2ccccc2C1)C(=O)c1cn2cc(-c3ccn(C)c(=O)c3)ncc2n1 [Example 93, (R)—N-(3-(3,4-dihydroisoquinolin-2(1H)-yl)-2-hydroxypropyl)-N-methyl-6-(1-methyl-2-oxo-1,2-dihydropyridin-4-yl)imidazo[1,2-a]pyrazine-2-carboxamide] | 1000 to 5000 nM | –
